Source: patent publication US11834453B2, “Substituted pyrimido[5,4-d]pyrimidines as HER2 inhibitors” (Array BioPharma Inc., priority 2020, dated 2023)

What was measured:
[1] = target: ErbB2 insYVMA (HER2-YVMA, SEQ ID NO: 2) (Homo sapiens, UniProt P04626, INS775YVMA/P1170A); assay: biochemical; conditions: ErbB2 insYVMA enzyme assay; read-out: Assay 1 IC50
ErbB2 WT = ErbB2 WT (Homo sapiens (Human), UniProt P04626); assay: ErbB enzyme assay (CisBio HTRF KinEASE-TK), Assay 2; format: biochemical
Method in brief: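 Readout is HTRF KinEASE-TK, using Sa-XL665 and cryptate antibody for 1 h at 22 °C, as percent of control between DMSO-only (100) and pre-quenched (0) reactions. The kinase reaction runs 30 min at 22 °C with 1 mM ATP and 250 nM biotinylated TK substrate, in HEPES pH 7.4 with MgCl2 and 2% DMSO.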

EGFR = EGFR (Homo sapiens (Human), UniProt P00533); assay: ErbB enzyme assay (CisBio HTRF KinEASE-TK), Assay 3; format: biochemical
Method in brief: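 First, enzyme was reacted with compound, 1 mM ATP and 250 nM biotinylated tyrosine-kinase peptide for 30 min at 22 °C at pH 7.4. Next, streptavidin-XL665 and cryptate antibody were added for 1 h. Finally, HTRF ratios were converted to POC and fitted to yield IC50.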

[2] = target: ErbB2 with Exon 20 YVMA insertion (HER2-YVMA) (Homo sapiens (Human), UniProt P04626, INS775YVMA); assay: Cellular phosphorylation assay, constitutive ErbB2 phosphorylation (Y1196) in engineered NIH 3T3 cells, Assay 4; format: cell-based
Method in brief: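 In-cell Western in NIH 3T3 cells carrying ErbB2 exon 20 YVMA insertion, with no ligand stimulation. One hour compound exposure at 37 °C before fixation and anti-pY1196 plus GAPDH staining with dual-wavelength fluorescence. IC50 derived after GAPDH normalization.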

EGFR wild type (EGFR WT) = EGFR wild type (EGFR WT) (Homo sapiens (Human), UniProt P00533); assay: Cellular phosphorylation assay, EGF-stimulated EGFR phosphorylation in engineered NIH 3T3 cells, Phospho-EGFR DuoSet IC ELISA, Assay 5; format: cell-based
Method in brief: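 Phospho-EGFR ELISA on lysates of engineered NIH 3T3 EGFR WT cells, IC50 derived from concentration curves. Cells plated at 20,000/well overnight, given compound dilutions 1 h at 37 °C, then rEGF 100 ng/ml for a further 10 min before lysis.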

MDR1 (P-gp) = MDR1 (P-gp) (Homo sapiens (Human), UniProt P08183); assay: MDR1 transfected LLC-PK1 permeability/efflux, Assay 6; conditions: pig, LLC-PK1, Assay 6 Pe Ratio, efflux ratio Papp(B-A)/Papp(A-B), MDR1 transfected LLC-PK1
Sequence of MDR1 (P-gp) (P08183 whole entry): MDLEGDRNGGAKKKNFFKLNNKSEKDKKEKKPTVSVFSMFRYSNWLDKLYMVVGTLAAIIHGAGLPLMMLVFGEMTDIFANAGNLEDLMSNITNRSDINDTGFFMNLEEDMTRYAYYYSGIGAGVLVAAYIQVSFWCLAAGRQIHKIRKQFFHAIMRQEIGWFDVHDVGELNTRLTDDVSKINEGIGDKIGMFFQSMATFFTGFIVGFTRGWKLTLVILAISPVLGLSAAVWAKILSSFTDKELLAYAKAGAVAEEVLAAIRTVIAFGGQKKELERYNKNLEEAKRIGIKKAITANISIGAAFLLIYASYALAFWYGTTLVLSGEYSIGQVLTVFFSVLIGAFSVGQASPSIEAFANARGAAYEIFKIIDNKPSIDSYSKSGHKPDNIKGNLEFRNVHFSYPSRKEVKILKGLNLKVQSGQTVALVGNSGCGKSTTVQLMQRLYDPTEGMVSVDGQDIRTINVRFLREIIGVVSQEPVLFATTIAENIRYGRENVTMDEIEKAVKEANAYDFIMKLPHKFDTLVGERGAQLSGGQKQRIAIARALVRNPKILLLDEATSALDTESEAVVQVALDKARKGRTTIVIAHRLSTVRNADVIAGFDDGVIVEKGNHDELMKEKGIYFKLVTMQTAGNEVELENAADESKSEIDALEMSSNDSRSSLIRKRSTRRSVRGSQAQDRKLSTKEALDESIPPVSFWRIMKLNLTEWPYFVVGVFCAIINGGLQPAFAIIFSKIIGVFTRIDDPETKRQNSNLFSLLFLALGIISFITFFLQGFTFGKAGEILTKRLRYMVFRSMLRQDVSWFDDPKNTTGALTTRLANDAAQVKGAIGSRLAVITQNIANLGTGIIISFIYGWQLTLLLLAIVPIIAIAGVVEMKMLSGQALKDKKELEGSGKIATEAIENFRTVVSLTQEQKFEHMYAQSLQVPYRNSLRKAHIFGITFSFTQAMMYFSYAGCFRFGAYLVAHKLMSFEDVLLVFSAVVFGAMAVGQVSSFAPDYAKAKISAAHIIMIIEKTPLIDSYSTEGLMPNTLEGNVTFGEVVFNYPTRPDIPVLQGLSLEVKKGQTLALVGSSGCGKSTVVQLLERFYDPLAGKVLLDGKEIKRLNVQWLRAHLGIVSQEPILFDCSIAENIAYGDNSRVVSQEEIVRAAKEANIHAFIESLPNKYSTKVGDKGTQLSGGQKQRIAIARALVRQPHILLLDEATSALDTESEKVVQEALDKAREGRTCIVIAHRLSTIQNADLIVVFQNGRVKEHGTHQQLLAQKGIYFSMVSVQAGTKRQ

Sequence of ErbB2 WT (P04626 23-1255): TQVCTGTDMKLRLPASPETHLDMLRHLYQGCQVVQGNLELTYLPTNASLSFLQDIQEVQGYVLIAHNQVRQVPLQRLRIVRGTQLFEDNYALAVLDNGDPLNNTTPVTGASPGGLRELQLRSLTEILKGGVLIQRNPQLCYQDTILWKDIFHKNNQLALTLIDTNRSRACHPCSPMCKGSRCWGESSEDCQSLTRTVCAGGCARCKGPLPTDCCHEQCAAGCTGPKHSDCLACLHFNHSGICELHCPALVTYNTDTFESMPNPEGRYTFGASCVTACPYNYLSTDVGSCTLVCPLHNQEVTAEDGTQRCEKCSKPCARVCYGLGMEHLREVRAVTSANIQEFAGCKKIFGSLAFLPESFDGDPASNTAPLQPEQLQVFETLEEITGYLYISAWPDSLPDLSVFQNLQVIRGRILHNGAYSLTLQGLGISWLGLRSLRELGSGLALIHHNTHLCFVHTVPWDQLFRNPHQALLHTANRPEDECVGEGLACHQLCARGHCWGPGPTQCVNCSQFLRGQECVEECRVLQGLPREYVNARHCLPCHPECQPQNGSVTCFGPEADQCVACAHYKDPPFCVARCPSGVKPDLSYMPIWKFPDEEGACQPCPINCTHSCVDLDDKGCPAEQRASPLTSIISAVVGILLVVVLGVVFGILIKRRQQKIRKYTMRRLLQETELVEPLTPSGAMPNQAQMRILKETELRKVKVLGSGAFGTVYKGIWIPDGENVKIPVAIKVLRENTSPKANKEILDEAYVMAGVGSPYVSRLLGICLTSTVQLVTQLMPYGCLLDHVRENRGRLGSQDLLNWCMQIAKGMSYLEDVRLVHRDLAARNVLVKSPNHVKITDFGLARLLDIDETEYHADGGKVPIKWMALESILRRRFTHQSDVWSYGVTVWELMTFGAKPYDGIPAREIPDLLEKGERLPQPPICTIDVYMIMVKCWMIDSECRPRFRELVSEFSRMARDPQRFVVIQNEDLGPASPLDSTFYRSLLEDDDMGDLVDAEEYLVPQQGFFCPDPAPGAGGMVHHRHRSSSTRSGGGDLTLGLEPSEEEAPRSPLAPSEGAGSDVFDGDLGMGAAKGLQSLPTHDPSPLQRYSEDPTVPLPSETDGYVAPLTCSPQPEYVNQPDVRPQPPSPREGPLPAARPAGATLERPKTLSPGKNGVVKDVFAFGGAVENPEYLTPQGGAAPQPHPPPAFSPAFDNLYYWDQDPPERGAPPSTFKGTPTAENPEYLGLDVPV
Sequence of ErbB2 with Exon 20 YVMA insertion (HER2-YVMA) (P04626 other isoform, or with tags, fused parts or gaps ins YVMA behind 775): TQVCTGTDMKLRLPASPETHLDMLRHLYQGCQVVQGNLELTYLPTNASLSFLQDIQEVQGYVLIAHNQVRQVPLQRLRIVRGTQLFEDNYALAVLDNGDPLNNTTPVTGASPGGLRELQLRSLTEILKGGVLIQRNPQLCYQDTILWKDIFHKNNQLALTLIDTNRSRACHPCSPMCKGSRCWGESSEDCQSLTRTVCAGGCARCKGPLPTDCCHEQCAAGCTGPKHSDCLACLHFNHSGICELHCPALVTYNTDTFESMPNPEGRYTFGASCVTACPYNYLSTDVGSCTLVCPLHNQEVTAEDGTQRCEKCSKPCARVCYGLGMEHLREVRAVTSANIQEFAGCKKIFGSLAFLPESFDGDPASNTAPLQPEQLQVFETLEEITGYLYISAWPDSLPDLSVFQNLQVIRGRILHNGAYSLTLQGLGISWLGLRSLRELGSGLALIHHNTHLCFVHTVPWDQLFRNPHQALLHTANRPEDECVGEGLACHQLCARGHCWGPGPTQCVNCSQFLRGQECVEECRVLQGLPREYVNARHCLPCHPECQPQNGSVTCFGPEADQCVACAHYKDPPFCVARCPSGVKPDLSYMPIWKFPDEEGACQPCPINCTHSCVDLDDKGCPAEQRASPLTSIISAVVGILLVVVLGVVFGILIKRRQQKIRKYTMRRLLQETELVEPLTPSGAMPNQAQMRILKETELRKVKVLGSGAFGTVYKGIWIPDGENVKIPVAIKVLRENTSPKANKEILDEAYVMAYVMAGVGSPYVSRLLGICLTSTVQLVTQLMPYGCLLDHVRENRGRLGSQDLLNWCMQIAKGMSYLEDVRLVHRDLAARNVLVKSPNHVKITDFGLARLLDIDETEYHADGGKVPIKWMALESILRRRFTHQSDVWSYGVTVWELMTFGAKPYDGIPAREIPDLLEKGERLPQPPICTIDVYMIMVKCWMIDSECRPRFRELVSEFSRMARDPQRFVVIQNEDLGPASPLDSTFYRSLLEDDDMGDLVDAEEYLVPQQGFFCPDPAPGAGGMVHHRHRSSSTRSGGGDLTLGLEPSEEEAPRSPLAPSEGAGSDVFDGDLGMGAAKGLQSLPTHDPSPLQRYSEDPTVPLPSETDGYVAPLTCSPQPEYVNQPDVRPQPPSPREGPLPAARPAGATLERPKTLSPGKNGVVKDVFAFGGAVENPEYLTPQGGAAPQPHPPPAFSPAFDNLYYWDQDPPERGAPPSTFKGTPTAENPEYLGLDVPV
Sequence of ErbB2 insYVMA (HER2-YVMA, SEQ ID NO: 2) (P04626 with tags, fused parts or gaps INS775YVMA/P1170A limits assumed): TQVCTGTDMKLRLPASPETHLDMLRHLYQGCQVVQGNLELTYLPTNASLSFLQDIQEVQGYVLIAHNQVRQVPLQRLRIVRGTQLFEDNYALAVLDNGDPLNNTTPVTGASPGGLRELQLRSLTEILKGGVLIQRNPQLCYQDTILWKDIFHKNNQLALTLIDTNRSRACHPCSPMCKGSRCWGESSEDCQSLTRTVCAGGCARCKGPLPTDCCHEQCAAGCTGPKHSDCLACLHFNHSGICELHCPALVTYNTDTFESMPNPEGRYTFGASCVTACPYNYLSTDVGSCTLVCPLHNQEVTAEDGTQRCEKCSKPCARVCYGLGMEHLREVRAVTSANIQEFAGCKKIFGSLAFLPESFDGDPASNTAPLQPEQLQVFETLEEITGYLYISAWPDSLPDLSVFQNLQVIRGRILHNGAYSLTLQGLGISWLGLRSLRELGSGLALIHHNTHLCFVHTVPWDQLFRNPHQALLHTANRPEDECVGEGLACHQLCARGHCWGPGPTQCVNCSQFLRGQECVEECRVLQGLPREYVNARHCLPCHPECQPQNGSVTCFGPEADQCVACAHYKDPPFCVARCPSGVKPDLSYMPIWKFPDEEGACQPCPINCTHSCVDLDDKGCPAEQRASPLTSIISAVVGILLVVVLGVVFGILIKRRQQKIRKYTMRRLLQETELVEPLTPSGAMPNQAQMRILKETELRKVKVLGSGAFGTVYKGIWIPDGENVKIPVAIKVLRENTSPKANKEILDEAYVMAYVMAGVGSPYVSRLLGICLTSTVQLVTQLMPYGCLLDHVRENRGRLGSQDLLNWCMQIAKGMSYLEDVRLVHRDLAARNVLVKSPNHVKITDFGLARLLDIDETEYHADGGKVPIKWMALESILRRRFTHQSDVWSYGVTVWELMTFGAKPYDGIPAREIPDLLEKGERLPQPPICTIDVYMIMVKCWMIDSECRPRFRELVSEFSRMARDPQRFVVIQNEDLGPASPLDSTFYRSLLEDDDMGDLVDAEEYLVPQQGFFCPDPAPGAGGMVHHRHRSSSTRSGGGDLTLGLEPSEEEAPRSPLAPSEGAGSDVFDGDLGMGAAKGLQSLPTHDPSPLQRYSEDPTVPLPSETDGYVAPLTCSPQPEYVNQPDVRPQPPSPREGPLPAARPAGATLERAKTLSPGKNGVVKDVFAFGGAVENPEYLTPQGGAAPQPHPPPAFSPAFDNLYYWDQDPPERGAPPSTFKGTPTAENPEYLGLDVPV

Cc1cc(Nc2ncnc3cnc(N[C@@H]4CCNC[C@@H]4F)nc23)ccc1Oc1ccc2c(c1)ncn2C [Example 83, N2-((3S,4R)-3-fluoropiperidin-4-yl)-N8-(3-methyl-4-((1-methyl-1H-benzo[d]imidazol-5-yl)oxy)phenyl)pyrimido[5,4-d]pyrimidine-2,8-diamine]
IC50 [1]: 12.4 nM
IC50 (ErbB2 WT): 34.5 nM
IC50 (EGFR): 5650 nM
IC50 [2]: 20.3 nM
IC50 (EGFR wild type (EGFR WT)): ≥ 5000 nM
efflux ratio at 2 h, 1 μM (MDR1 (P-gp)): 76

Cc1cc(Nc2ncnc3cnc(N[C@@H]4CCN(C)C[C@@H]4F)nc23)ccc1Oc1ccc2c(c1)ncn2C [Example 84, N2-((3S,4R)-3-fluoro-1-methylpiperidin-4-yl)-N8-(3-methyl-4-((1-methyl-1H-benzo[d]imidazol-5-yl)oxy)phenyl)pyrimido[5,4-d]pyrimidine-2,8-diamine]
IC50 [1]: 14 nM
IC50 (ErbB2 WT): 47.2 nM
IC50 (EGFR): 5380 nM
IC50 [2]: 25.5 nM
IC50 (EGFR wild type (EGFR WT)): ≥ 5000 nM
efflux ratio at 2 h, 1 μM (MDR1 (P-gp)): 10.2

Cc1cc(Nc2ncnc3cnc(O[C@H]4CCNC[C@H]4F)nc23)ccc1Oc1ccc2c(c1)ncn2C [Example 284]
IC50 [1]: 75.6 nM
IC50 (ErbB2 WT): 681 nM
IC50 (EGFR): ≥ 10000 nM
IC50 [2]: 53.4 nM
IC50 (EGFR wild type (EGFR WT)): ≥ 5000 nM
efflux ratio at 2 h, 1 μM (MDR1 (P-gp)): 95.4

Cc1cc(Nc2ncnc3cnc(N[C@@H]4CCOC4)nc23)ccc1Oc1ccc2c(c1)ncn2C [Example 275]
IC50 [1]: 13.1 nM
IC50 (ErbB2 WT): 16.5 nM
IC50 (EGFR): 1650 nM
IC50 [2]: 18 nM
IC50 (EGFR wild type (EGFR WT)): ≥ 5000 nM
efflux ratio at 2 h, 1 μM (MDR1 (P-gp)): 6

Cc1cc(Nc2ncnc3cnc(N4C[C@@H]5CCCN5C4=O)nc23)ccc1Oc1ccc2c(c1)ncn2C [Example 254]
IC50 [1]: 53.2 nM
IC50 (ErbB2 WT): 114 nM
IC50 (EGFR): ≥ 10000 nM
IC50 [2]: 44 nM
IC50 (EGFR wild type (EGFR WT)): ≥ 5000 nM
efflux ratio at 2 h, 1 μM (MDR1 (P-gp)): 9.9

Cc1cc(Nc2ncnc3cnc(-c4ncco4)nc23)ccc1Oc1ccc2c(c1)ncn2C [Example 226]
IC50 [1]: 92.7 nM
IC50 (ErbB2 WT): 128 nM
IC50 (EGFR): ≥ 10000 nM
IC50 [2]: 65.4 nM
IC50 (EGFR wild type (EGFR WT)): ≥ 5000 nM
efflux ratio at 2 h, 1 μM (MDR1 (P-gp)): 3.2

Cc1cc(Nc2ncnc3cnc(NC45CC(C4)C5)nc23)ccc1Oc1ccc2c(c1)ncn2C [Example 18, N2-(bicyclo[1.1.1]pentan-1-yl)-N8-(3-methyl-4-((1-methyl-1H-benzo[d]imidazol-5-yl)oxy)phenyl)pyrimido[5,4-d]pyrimidine-2,8-diamine]
IC50 [1]: 122 nM
IC50 (ErbB2 WT): 167 nM
IC50 (EGFR): ≥ 10000 nM
IC50 [2]: 47.8 nM
IC50 (EGFR wild type (EGFR WT)): ≥ 5000 nM
efflux ratio at 2 h, 1 μM (MDR1 (P-gp)): 2.6

Cc1cc(Nc2ncnc3cnc(O[C@H]4CCNC[C@@H]4F)nc23)ccc1Oc1ccc2c(c1)ncn2C [Example 285]
IC50 [1]: 83.9 nM
IC50 (ErbB2 WT): 787 nM
IC50 (EGFR): ≥ 10000 nM
IC50 [2]: 53.2 nM
IC50 (EGFR wild type (EGFR WT)): ≥ 5000 nM
efflux ratio at 2 h, 1 μM (MDR1 (P-gp)): 72.1

Cc1cc(Nc2ncnc3cnc(N4CC[C@@H](S(C)(=O)=O)C4)nc23)ccc1Oc1ccc2c(c1)ncn2C [Example 125, (R)—N-(3-methyl-4-((1-methyl-1H-benzo[d]imidazol-5-yl)oxy)phenyl)-6-(3-(methylsulfonyl)pyrrolidin-1-yl)pyrimido[5,4-d]pyrimidin-4-amine]
IC50 [1]: 24.8 nM
IC50 (ErbB2 WT): 55.6 nM
IC50 (EGFR): ≥ 10000 nM
IC50 [2]: 32.4 nM
IC50 (EGFR wild type (EGFR WT)): ≥ 5000 nM
efflux ratio at 2 h, 1 μM (MDR1 (P-gp)): 36.1

Cc1cc(Nc2ncnc3cnc(N4CCC(C)S4(=O)=O)nc23)ccc1Oc1ccc2c(c1)ncn2C (stereo not drawn) [Example 267]
IC50 [1]: 34.3 nM
IC50 (ErbB2 WT): 33.4 nM
IC50 (EGFR): 3950 nM
IC50 [2]: 4.1 nM
IC50 (EGFR wild type (EGFR WT)): ≥ 5000 nM
efflux ratio at 2 h, 1 μM (MDR1 (P-gp)): 6

Cc1cc(Nc2ncnc3cnc(N4CC(C(C)(C)O)C4)nc23)ccc1Oc1ccc2c(c1)ncn2C [Example 118, 2-(1-(8-((3-methyl-4-((1-methyl-1H-benzo[d]imidazol-5-yl)oxy)phenyl)amino)pyrimido[5,4-d]pyrimidin-2-yl)azetidin-3-yl)propan-2-ol]
IC50 [1]: 54.2 nM
IC50 (ErbB2 WT): 88.7 nM
IC50 (EGFR): ≥ 10000 nM
IC50 [2]: 39.8 nM
IC50 (EGFR wild type (EGFR WT)): ≥ 5000 nM
efflux ratio at 2 h, 1 μM (MDR1 (P-gp)): 7.4

Cc1cc(Nc2ncnc3cnc(N4CCN(C)[C@H](C)C4)nc23)ccc1Oc1ccc2c(c1)ncn2C [Example 281]
IC50 [1]: 23.8 nM
IC50 (ErbB2 WT): 84.2 nM
IC50 (EGFR): ≥ 10000 nM
IC50 [2]: 26.6 nM
IC50 (EGFR wild type (EGFR WT)): ≥ 5000 nM
efflux ratio at 2 h, 1 μM (MDR1 (P-gp)): 2.1

CC(=O)N1CCN(c2ncc3ncnc(Nc4ccc(Oc5ccc6c(c5)ncn6C)c(C)c4)c3n2)CC1 [Example 24, 1-(4-(8-((3-methyl-4-((1-methyl-1H-benzo[d]imidazol-5-yl)oxy)phenyl)amino)pyrimido[5,4-d]pyrimidin-2-yl)piperazin-1-yl)ethan-1-one]
IC50 [1]: 18.2 nM
IC50 (ErbB2 WT): 31.5 nM
IC50 (EGFR): ≥ 10000 nM
IC50 [2]: 7.1 nM
IC50 (EGFR wild type (EGFR WT)): ≥ 5000 nM
efflux ratio at 2 h, 1 μM (MDR1 (P-gp)): 30

Cc1cc(Nc2ncnc3cnc(N4CCC(C)(O)CC4)nc23)ccc1Oc1ccc2c(c1)ncn2C [Example 209, 4-methyl-1-(8-((3-methyl-4-((1-methyl-1H-benzo[d]imidazol-5-yl)oxy)phenyl)amino)pyrimido[5,4-d]pyrimidin-2-yl)piperidin-4-ol]
IC50 [1]: 29.2 nM
IC50 (ErbB2 WT): 57.9 nM
IC50 (EGFR): 9530 nM
IC50 [2]: 11.7 nM
IC50 (EGFR wild type (EGFR WT)): ≥ 5000 nM
efflux ratio at 2 h, 1 μM (MDR1 (P-gp)): 3.3

Cc1cc(Nc2ncnc3cnc(N)nc23)ccc1Oc1ccc2c(c1)ncn2C [Example 206, N8-(3-methyl-4-((1-methyl-1H-benzo[d]imidazol-5-yl)oxy)phenyl)pyrimido[5,4-d]pyrimidine-2,8-diamine bis(2,2,2-trifluoroacetate)]
IC50 [1]: 12.6 nM
IC50 (ErbB2 WT): 40.8 nM
IC50 (EGFR): ≥ 10000 nM
IC50 [2]: 24.8 nM
IC50 (EGFR wild type (EGFR WT)): ≥ 5000 nM
efflux ratio at 2 h, 1 μM (MDR1 (P-gp)): 3.3

Cc1cc(Nc2ncnc3cnc(N4CCN(C)C4=O)nc23)ccc1Oc1ccc2c(c1)ncn2C [Example 28, 1-methyl-3-(8-((3-methyl-4-((1-methyl-1H-benzo[d]imidazol-5-yl)oxy)phenyl)amino)pyrimido[5,4-d]pyrimidin-2-yl)imidazolidin-2-one]
IC50 [1]: 68.7 nM
IC50 (ErbB2 WT): 163 nM
IC50 (EGFR): ≥ 10000 nM
IC50 [2]: 24.8 nM
IC50 (EGFR wild type (EGFR WT)): ≥ 5000 nM
efflux ratio at 2 h, 1 μM (MDR1 (P-gp)): 13.3

Cc1cc(Nc2ncnc3cnc(N4CCOC(C(F)F)C4)nc23)ccc1Oc1ccc2c(c1)ncn2C (stereo not drawn) [Example 181, 6-(2-(difluoromethyl)morpholino)-N-(3-methyl-4-((1-methyl-1H-benzo[d]imidazol-5-yl)oxy)phenyl)pyrimido[5,4-d]pyrimidin-4-amine]
IC50 [1]: 81.5 nM
IC50 (ErbB2 WT): 171 nM
IC50 (EGFR): ≥ 10000 nM
IC50 [2]: 53.4 nM
IC50 (EGFR wild type (EGFR WT)): ≥ 5000 nM
efflux ratio at 2 h, 1 μM (MDR1 (P-gp)): 0.3

Cc1cc(Nc2ncnc3cnc(NC4=NC(C)(C)CO4)nc23)ccc1Oc1ccc2c(c1)ncn2C [Example 32, N2-(4,4-dimethyl-4,5-dihydrooxazol-2-yl)-N8-(3-methyl-4-((1-methyl-1H-benzo[d]imidazol-5-yl)oxy)phenyl)pyrimido[5,4-d]pyrimidine-2,8-diamine]
IC50 [1]: 34.6 nM
IC50 (ErbB2 WT): 43.4 nM
IC50 (EGFR): ≥ 10000 nM
IC50 [2]: 13.4 nM
IC50 (EGFR wild type (EGFR WT)): ≥ 5000 nM
efflux ratio at 2 h, 1 μM (MDR1 (P-gp)): 34.5
